Assay results taken from publication PMC12173503, “Enterohaemorrhagic Escherichia coli AdhE spirosome length correlates with enzymatic directionality and is perturbed by salicylidene acylhydrazides” (Open Biology, 2025).

Experiments:
[1] = target: T1, AdhE (6-His-AdhE) (Escherichia coli, UniProt P0A9Q7); experiment: NADH consumption at […] nm; format: biochemical; set-up: full-length AdhE, N-terminal 6-His tag kept, pET28a, expressed in E. coli BL21(DE3); spirosome oligomers, SEC fractions F12 (long) and F24 (short); settings: forward reaction; 200 μM acetyl-CoA, 250 μM NADH, 20 μM FeSO4, 250 mM NaCl, 50 mM Tris-HCl pH 8.0, 37 °C
T1 sequence (P0A9Q7 whole entry): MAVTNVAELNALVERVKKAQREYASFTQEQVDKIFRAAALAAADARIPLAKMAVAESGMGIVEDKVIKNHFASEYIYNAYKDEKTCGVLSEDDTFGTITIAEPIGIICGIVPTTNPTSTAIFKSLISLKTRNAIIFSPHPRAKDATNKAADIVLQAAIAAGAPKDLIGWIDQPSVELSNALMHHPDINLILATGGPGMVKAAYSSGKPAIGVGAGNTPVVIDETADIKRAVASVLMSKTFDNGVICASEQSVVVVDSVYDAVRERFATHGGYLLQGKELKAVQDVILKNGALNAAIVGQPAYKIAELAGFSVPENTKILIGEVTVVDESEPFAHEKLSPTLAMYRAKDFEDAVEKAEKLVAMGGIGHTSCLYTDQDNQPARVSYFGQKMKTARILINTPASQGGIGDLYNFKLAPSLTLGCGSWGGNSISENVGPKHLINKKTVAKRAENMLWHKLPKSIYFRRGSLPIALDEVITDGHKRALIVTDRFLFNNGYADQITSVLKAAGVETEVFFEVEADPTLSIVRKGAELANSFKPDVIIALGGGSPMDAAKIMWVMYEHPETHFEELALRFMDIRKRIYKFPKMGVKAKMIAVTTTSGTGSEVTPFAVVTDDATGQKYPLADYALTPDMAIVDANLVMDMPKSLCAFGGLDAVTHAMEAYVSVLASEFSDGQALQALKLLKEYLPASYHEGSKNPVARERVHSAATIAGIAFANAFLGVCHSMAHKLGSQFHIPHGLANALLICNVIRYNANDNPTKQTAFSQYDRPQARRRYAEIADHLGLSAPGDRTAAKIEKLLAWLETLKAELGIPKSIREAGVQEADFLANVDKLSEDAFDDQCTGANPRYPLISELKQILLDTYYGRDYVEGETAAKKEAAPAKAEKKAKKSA

[2] = target: T1, AdhE (6-His-AdhE); settings: reverse reaction; 200 mM ethanol, 500 μM NAD+, 200 μM CoASH, 20 μM FeSO4, 250 mM NaCl, 50 mM Tris-HCl pH 8.0, 37 °C

SMILES: CC(=O)SCCNC(=O)CCNC(=O)[C@H](O)C(C)(C)COP(=O)(O)OP(=O)(O)OC[C@H]1O[C@@H](n2cnc3c(N)ncnc32)[C@H](O)[C@@H]1OP(=O)(O)O [acetyl-CoA]
- NADH consumption at 340 nm [1]: F12 or F24 was incubated with acetyl-CoA in the presence of NADH

SMILES: CCO [ethanol]
- NADH production at 340 nm [2]: F12 or F24 was incubated with ethanol, NAD^+ and CoASH
